Data as given in EP4603105A1, “PHARMACEUTICAL COMPOSITION CONTAINING CYCLIC COMPOUND HAVING SELECTIVE KRAS INHIBITORY EFFECT AGAINST HRAS AND NRAS” (CHUGAI SEIYAKU KABUSHIKI KAISHA, priority 2022, dated 2024).
Where two headings read alike, the source gives them in different places. Where a SMILES comes first, the peptide text is derived from it. Bridges are numbered along the chain shown (N, C = ends). [ ]: non-standard residue; d: D form. The star is where a group is joined. hPhe(3,5-F2-4-CF3) = N[C@@H](CCc1cc(F)c(C(F)(F)F)c(F)c1)C(=O)O; hPhe(3-Cl-4-CF3) = N[C@@H](CCc1ccc(C(F)(F)F)c(Cl)c1)C(=O)O; NPrPhe(4-CF3) = CCCN[C@@H](Cc1ccc(C(F)(F)F)cc1)C(=O)O; NEtPhe(4-Me) = CCN[C@@H](Cc1ccc(C)cc1)C(=O)O; NMeGly(cPent) = CN[C@H](C(=O)O)C1CCCC1; Pro(4S-Me) = C[C@@H]1CN[C@H](C(=O)O)C1; Hyp = O=C(O)[C@@H]1C[C@@H](O)CN1; NMeD = CN[C@@H](CC(=O)O)C(=O)O; NMeL = CN[C@@H](CC(C)C)C(=O)O; NMeV = CN[C@H](C(=O)O)C(C)C; Iva = CC[C@](C)(N)C(=O)O; Morpholide = C1CN(*)CCO1; NMeA = CN[C@@H](C)C(=O)O; Ac5c = NC1(C(=O)O)CCCC1; Aze = O=C(O)[C@@H]1CCN1; Ac4c = NC1(C(=O)O)CCC1; Sar = CNCC(=O)O

Columns and labels:
[1] = target: GDP-bound NRAS wild-type protein (Homo sapiens, UniProt P01111); assay: Binding to NRAS by surface plasmon resonance (SPR), KD and KD ratio to KRAS
Chain of GDP-bound NRAS wild-type protein (P01111 whole entry): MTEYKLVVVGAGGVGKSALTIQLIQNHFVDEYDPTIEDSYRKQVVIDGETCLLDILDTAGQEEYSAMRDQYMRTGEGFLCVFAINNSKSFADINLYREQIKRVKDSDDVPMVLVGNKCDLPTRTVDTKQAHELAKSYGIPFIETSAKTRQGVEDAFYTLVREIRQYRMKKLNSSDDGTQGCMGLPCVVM
Procedure, shortened: (§1)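 Captured GDP-RAS (~100–300 RU) was exposed to increasing compound concentrations, 75 s per step, in running buffer with 10 µM GDP, 10 mM MgCl2 and 4% DMSO at pH 7.4.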

[2] = tested on: human lung cancer strain NCI-H441; format: cell-based
Procedure, shortened: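 Step one: dispense the test compound in serial DMSO dilutions. Step three: add the reagent and measure […].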

HRAS wild-type protein = HRAS wild-type protein (Homo sapiens, UniProt P01112); assay: Binding to HRAS by surface plasmon resonance (SPR), KD and KD ratio to KRAS
Chain of HRAS wild-type protein (P01112 whole entry): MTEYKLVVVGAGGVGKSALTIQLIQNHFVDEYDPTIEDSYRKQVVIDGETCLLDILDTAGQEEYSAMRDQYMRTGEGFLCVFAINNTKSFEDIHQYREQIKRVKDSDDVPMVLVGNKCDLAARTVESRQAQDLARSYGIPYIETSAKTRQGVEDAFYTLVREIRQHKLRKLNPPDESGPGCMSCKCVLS
Procedure, shortened: as §1

[3] = ratio of KD for GDP-bound NRAS wild-type protein to KD for KRAS
[4] = ratio of KD for HRAS wild-type protein to KD for KRAS
[5] = ratio of the KD value with respect to GDP-bound NRAS wild-type protein to the KD value with respect to KRAS
[6] = ratio of the KD value with respect to HRAS wild-type protein to the KD value with respect to KRAS

IC50 [2] [nM] | Compound | NRAS /KRAS [1, 3] | HRAS /KRAS (HRAS wild-type protein; [4]) | NRAS /KRAS ([1]; ratio of KD with respect to GDP-bound NRAS wild-type protein to KD with respect to KRAS) | HRAS /KRAS (HRAS wild-type protein; ratio of KD with respect to HRAS wild-type protein to KD with respect to KRAS) | NRAS /KRAS [1, 5] | HRAS /KRAS (HRAS wild-type protein; [6]) | IC50 ([2]; NCI-H441 cells, 4 days, CellTiter-Glo, read-out: NCl-H441 IC50) [nM]
15.5 | CCO[C@@H]1C[C@H]2C(=O)NC3(CCC3)C(=O)N(C)[C@@H](C3CCCC3)C(=O)N(C)[C@H](C(=O)N3C[C@@H](C)O[C@@H](C)C3)CC(=O)N(C)[C@@H](CC(C)C)C(=O)N[C@@H]([C@@H](C)CC)C(=O)N(C)CC(=O)N(C)[C@H]3CCCCCN(C3=O)[C@@H](Cc3ccc(F)cc3)C(=O)N(C)CC(=O)N[C@@H](CCc3ccc(C(F)(F)F)c(Cl)c3)C(=O)N2C1 [PP1153] | – | – | B (a compound having 3 or more and less than 10 is denoted as B) | B (a compound having 3 or more and less than 10 is denoted as B) | – | – | –
22.7 | CCO[C@@H]1C[C@H]2C(=O)NC3(CCC3)C(=O)N(C)[C@@H](C3CCCC3)C(=O)N(C)[C@H](C(=O)N(C)C)CC(=O)N(C)[C@@H](CC)C(=O)N[C@@H]([C@@H](C)CC)C(=O)N(C)CC(=O)N(C)[C@H]3CCCCCN(C3=O)[C@@H](Cc3ccc(C(F)(F)F)cc3)C(=O)N(C)CC(=O)N[C@@H](CCc3cc(F)c(C(F)(F)F)c(F)c3)C(=O)N2C1 [PP0663] | – | – | – | – | B (a compound having 3 or more and less than 10 is denoted as B) | B (a compound having 3 or more and less than 10 is denoted as B) | –
141 | CCCN1C(=O)CN(C)C(=O)[C@@H]2CCN2C(=O)[C@H]([C@@H](C)CC)NC(=O)[C@H](CC(C)C)N(C)C(=O)C[C@@H](C(=O)N2CCOCC2)NC(=O)[C@H](C2CCCC2)N(C)C(=O)C2(CCC2)NC(=O)[C@@H]2C[C@@H](OCC)CN2C(=O)[C@H](CCc2ccc(C(F)(F)F)c(Cl)c2)NC(=O)CN(C)C(=O)[C@@H]1Cc1ccc(C(F)(F)F)cc1 [PP0342] ([NMeL]I[Aze][Sar][NPrPhe(4-CF3)][Sar][hPhe(3-Cl-4-CF3)][Hyp](Et)[Ac4c][NMeGly(cPent)]D-Morpholide; lactam N-11) | B (a compound having 3 or more and less than 10 is denoted as B) | B (a compound having 3 or more and less than 10 is denoted as B) | – | – | – | – | –
6.8 | CCO[C@@H]1C[C@H]2C(=O)NC3(CCC3)C(=O)N(C)[C@@H](C3CCCC3)C(=O)N(C)[C@H](C(=O)N(C)C)CC(=O)N(C)[C@@H](CC)C(=O)N[C@@H]([C@@H](C)CC)C(=O)N(C)CC(=O)N(C)[C@H]3CCCCN(C3=O)[C@@H](Cc3ccc(C(F)(F)F)cc3)C(=O)N(C)CC(=O)N[C@@H](CCc3ccc(Cl)c(Cl)c3)C(=O)N2C1 [PP0987] | C (A compound having a KD ratio of 0.1 or more and less than 3 is denoted as C) | C (A compound having a KD ratio of 0.1 or more and less than 3 is denoted as C) | – | – | – | – | –

Second part, the compound before the results:

Compound | IC50 [2] [nM] | NRAS /KRAS [1, 3] | HRAS /KRAS (HRAS wild-type protein; [4]) | NRAS /KRAS ([1]; ratio of KD with respect to GDP-bound NRAS wild-type protein to KD with respect to KRAS) | HRAS /KRAS (HRAS wild-type protein; ratio of KD with respect to HRAS wild-type protein to KD with respect to KRAS) | NRAS /KRAS [1, 5] | HRAS /KRAS (HRAS wild-type protein; [6]) | IC50 ([2]; NCI-H441 cells, 4 days, CellTiter-Glo, read-out: NCl-H441 IC50) [nM]
CCC[C@H]1C(=O)N[C@@H]([C@@H](C)CC)C(=O)N(C)CC(=O)N(C)[C@H]2C/C=C\CCN(C2=O)[C@@H](Cc2ccc(C)cc2)C(=O)N(C)CC(=O)N[C@@H](CCc2ccc(C(F)(F)F)c(OC)c2)C(=O)N2C[C@H](OCC)C[C@H]2C(=O)N(C)C2(CCC2)C(=O)N(C)[C@@H](C2CCCC2)C(=O)N(C)[C@H](C(=O)N2CCCC2)CC(=O)N1C [PP3106] | 2.9 | A (a compound having 10 or more and less than 20 is denoted as A) | A (a compound having 10 or more and less than 20 is denoted as A) | – | – | – | – | –
CCO[C@@H]1C[C@H]2C(=O)NC3(CCC3)C(=O)N(C)[C@@H](C3CCCC3)C(=O)N(C)[C@H](C(=O)N(C)C)CC(=O)N(C)[C@@H](CC3CCCC3)C(=O)N[C@@H]([C@@H](C)CC)C(=O)N(C)CC(=O)N(C)[C@H]3C/C=C\CCN(C3=O)[C@@H](Cc3ccc(C)cc3)C(=O)N(C)CC(=O)N[C@@H](CCc3ccc(C4CC4)c(F)c3)C(=O)N2C1 [PP2683] | 63.3 | A (a compound having 10 or more and less than 20 is denoted as A) | A (a compound having 10 or more and less than 20 is denoted as A) | – | – | – | – | –
CCC[C@H]1C(=O)N[C@@H]([C@@H](C)CC)C(=O)N(C2CC2)CC(=O)N(C)[C@H]2C/C=C\CCN(C2=O)[C@@H](Cc2ccc(C)cc2)C(=O)N(C)CC(=O)N[C@@H](CCc2cc(C)c(C(F)F)c(Cl)c2)C(=O)N2C[C@H](OCC)C[C@H]2C(=O)NC2(CC(C)(C)C2)C(=O)N(C)[C@@H](C2CCCC2)C(=O)N(C)[C@H](C(=O)N(C)C)CC(=O)N1C [PP2875] | 121 | A (a compound having 10 or more and less than 20 is denoted as A) | A (a compound having 10 or more and less than 20 is denoted as A) | – | – | – | – | –
CCCN1C(=O)CN(C)C(=O)CNC(=O)[C@H]([C@@H](C)CC)NC(=O)[C@H](CC(C)C)N(C)C(=O)C[C@@H](C(=O)N2CCOCC2)N(C)C(=O)[C@H](C2CCCC2)N(C)C(=O)C2(CCCC2)NC(=O)[C@@H]2C[C@H](C)CN2C(=O)[C@H](CCc2ccc(C(F)(F)F)c(Cl)c2)NC(=O)CN(C)C(=O)[C@@H]1Cc1ccc(C(F)(F)F)cc1 [PP0449] ([NMeL]IG[Sar][NPrPhe(4-CF3)][Sar][hPhe(3-Cl-4-CF3)][Pro(4S-Me)][Ac5c][NMeGly(cPent)][NMeD]-Morpholide; lactam N-11) | 9.2 | – | – | – | – | C (A compound having a KD ratio of 0.1 or more and less than 3 is denoted as C) | C (A compound having a KD ratio of 0.1 or more and less than 3 is denoted as C) | –
CCC[C@H]1C(=O)N[C@@H]([C@@H](C)CC)C(=O)N(C)CC(=O)N(C)[C@H]2C/C=C\CCN(C2=O)[C@@H](Cc2ccc(C(F)(F)F)cc2)C(=O)N(C)CC(=O)N[C@@H](CCc2ccc(C3CC3)c(Cl)c2)C(=O)N2C[C@H](OCC)C[C@H]2C(=O)NC2(CC(C)(C)C2)C(=O)N(C)[C@@H](C2CCCC2)C(=O)N(C)[C@H](C(=O)N(C)C)CC(=O)N1C [PP2858] | – | A (a compound having 10 or more and less than 20 is denoted as A) | B (a compound having 3 or more and less than 10 is denoted as B) | – | – | – | – | 11.8
CCO[C@@H]1C[C@H]2C(=O)NC3(CCC3)C(=O)N(C)[C@@H](C3CCCC3)C(=O)N(C)[C@H](C(=O)N(C)CC)CC(=O)N(C)[C@H]3CCCCCc4ccc(cc4)C[C@@H](C(=O)N(C)CC(=O)N[C@@H](CCc4ccc(C(F)(F)F)c(OC)c4)C(=O)N2C1)N1CC/C=C\C[C@@H](C1=O)N(C)C(=O)CN(C)C(=O)[C@H]([C@@H](C)CC)NC3=O [PP2118] | 8.1 | – | – | – | – | A (a compound having 10 or more and less than 20 is denoted as A) | B (a compound having 3 or more and less than 10 is denoted as B) | –
CCCN1C(=O)[C@@H]2CCN2C(=O)CN(C)C(=O)[C@H]([C@@H](C)CC)NC(=O)[C@H](CC(C)C)N(C)C(=O)C[C@@H](C(=O)N2CCOCC2)N(C)C(=O)[C@H](C2CCCC2)N(C)C(=O)[C@](C)(CC)NC(=O)[C@@H]2CCCN2C(=O)[C@H](CCc2cc(F)c(C(F)(F)F)c(F)c2)NC(=O)CN(C)C(=O)[C@@H]1Cc1ccc(C(F)(F)F)cc1 [PP0790] ([NMeL]I[Sar][Aze][NPrPhe(4-CF3)][Sar][hPhe(3,5-F2-4-CF3)]P[Iva][NMeGly(cPent)][NMeD]-Morpholide; lactam N-11) | 28.8 | C (A compound having a KD ratio of 0.1 or more and less than 3 is denoted as C) | B (a compound having 3 or more and less than 10 is denoted as B) | – | – | – | – | –
CC[C@H](C)[C@@H]1NC(=O)[C@H](CC(C)C)N(C)C(=O)C[C@@H](C(=O)N2CCOCC2)N(C)C(=O)[C@H](C(C)C)N(C)C(=O)C2(CCCC2)NC(=O)[C@@H]2CCCN2C(=O)[C@H](CCc2ccc(C(F)(F)F)c(Cl)c2)NC(=O)CN(C)C(=O)[C@H](Cc2ccc(C)cc2)N(CC)C(=O)[C@@H]2CCN2C(=O)[C@H](C)N(C)C1=O [PP0015] ([NMeL]I[NMeA][Aze][NEtPhe(4-Me)][Sar][hPhe(3-Cl-4-CF3)]P[Ac5c][NMeV][NMeD]-Morpholide; lactam N-11) | 24.5 | C (A compound having a KD ratio of 0.1 or more and less than 3 is denoted as C) | C (A compound having a KD ratio of 0.1 or more and less than 3 is denoted as C) | – | – | – | – | –
CCOC[C@H]1C(=O)N[C@@H]([C@@H](C)CC)C(=O)N(C)CC(=O)N(C)[C@H]2C/C=C\CCN(C2=O)[C@@H](CC2CCC(F)(F)CC2)C(=O)N(C)CC(=O)N[C@@H](CCc2ccc(C(F)(F)F)c(OC)c2)C(=O)N2C[C@H](OCC)C[C@H]2C(=O)N(C)C2(CCC2)C(=O)N(C)[C@@H](C(CC)CC)C(=O)N(C)[C@H](C(=O)N(C)C)CC(=O)N1C [PP2347] | 143 | – | – | – | – | A (a compound having 10 or more and less than 20 is denoted as A) | A (a compound having 10 or more and less than 20 is denoted as A) | –
CCCO[C@@H]1C[C@H]2C(=O)NC3(CC(C)(C)C3)C(=O)N(C)[C@@H](C3CCCC3)C(=O)N(C)[C@H](C(=O)N3CCCC3)CC(=O)N(C)[C@H]3CCCCc4ccc(cc4)C[C@@H](C(=O)N(C)CC(=O)N[C@@H](CCc4ccc(C(F)(F)F)c(OC)c4)C(=O)N2C1)N1CC/C=C\C[C@@H](C1=O)N(C)C(=O)CN(C)C(=O)[C@H]([C@@H](C)CC)NC3=O [PP3094] | 2.2 | A (a compound having 10 or more and less than 20 is denoted as A) | B (a compound having 3 or more and less than 10 is denoted as B) | – | – | – | – | –
